In ChEMBL document CHEMBL4000201, “Benzylideneoxymorphone: A new lead for development of bifunctional mu/delta opioid receptor ligands” (Bioorg Med Chem Lett, 2017):

How the values were obtained:
[1] = Displacement of [3H]DPDPE from DOR in guinea pig brain membranes measured after 60 mins by scintillation counting method; type: cell membranes, Cavia porcellus, Membrane
[2] = target: Delta-type opioid receptor (Homo sapiens, UniProt P41143); experiment: Displacement of [3H]DPDPE from human DOR expressed in CHO cells; type: cell-based
Chain of Delta-type opioid receptor (P41143 whole entry): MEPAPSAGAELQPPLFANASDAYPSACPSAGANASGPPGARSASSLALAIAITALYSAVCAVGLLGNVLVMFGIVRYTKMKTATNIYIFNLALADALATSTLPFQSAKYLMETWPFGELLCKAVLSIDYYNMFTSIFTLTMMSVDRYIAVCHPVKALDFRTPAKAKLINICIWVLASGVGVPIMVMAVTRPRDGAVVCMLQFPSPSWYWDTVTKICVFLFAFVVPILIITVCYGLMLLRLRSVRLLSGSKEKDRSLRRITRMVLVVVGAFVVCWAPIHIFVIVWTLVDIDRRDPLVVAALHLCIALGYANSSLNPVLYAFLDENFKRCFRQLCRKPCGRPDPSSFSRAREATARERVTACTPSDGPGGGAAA

Mu-type opioid receptor = Mu-type opioid receptor (Homo sapiens, UniProt P35372); experiment: Displacement of [3H]DAMGO from human MOR expressed in CHO cells; type: cell-based
Chain of Mu-type opioid receptor (P35372 whole entry): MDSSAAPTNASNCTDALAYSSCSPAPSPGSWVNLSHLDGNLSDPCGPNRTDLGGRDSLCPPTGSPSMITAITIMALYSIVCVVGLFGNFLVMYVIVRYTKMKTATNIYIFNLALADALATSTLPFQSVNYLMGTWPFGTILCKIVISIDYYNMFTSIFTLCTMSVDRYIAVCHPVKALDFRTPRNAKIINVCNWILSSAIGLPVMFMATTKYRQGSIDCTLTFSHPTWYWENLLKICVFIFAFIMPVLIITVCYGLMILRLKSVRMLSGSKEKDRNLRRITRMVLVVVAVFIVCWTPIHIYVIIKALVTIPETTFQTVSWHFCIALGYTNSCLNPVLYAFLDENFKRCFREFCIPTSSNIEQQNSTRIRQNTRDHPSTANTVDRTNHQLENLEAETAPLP

Mus musculus [3] = experiment: Antinociceptive activity in Swiss-Webster mouse assessed as time required for peak effect at 60 mg/kg, sc after 30 mins measured every 20 mins for 90 mins by hot plate test; type: functional
Mus musculus [4] = experiment: Antinociceptive activity in Swiss-Webster mouse assessed as maximum possible effect at 20 to 60 mg/kg, sc after 30 mins measured every 20 mins for 90 mins by hot plate test; type: functional

Row | SMILES | Ki [1] [nM] | Ki [2] [nM] | Ki (Mu-type opioid receptor) [nM] | Time (Mus musculus [3]) [min] | MPE (Mus musculus [4]) [%]
1 | O=C1/C(=C/c2ccccc2)C[C@@]2(O)[C@H]3Cc4ccc(O)c5c4[C@@]2(CCN3CC2CC2)[C@H]1O5 [BNTX] | 6.2 |  |  |  | 
2 | O=C1/C(=C/c2ccccc2)C[C@@]2(O)[C@H]3Cc4ccc(O)c5c4[C@@]2(CCN3CCCc2ccccc2)[C@H]1O5 |  | 168 | 313 |  | 
3 | CN1CC[C@]23c4c5ccc(O)c4O[C@H]2C(=O)/C(=C/c2ccccc2)C[C@@]3(O)[C@H]1C5 |  | 14.4 | 17.5 | 50 | 40
